According to ChEMBL document CHEMBL3399993, “Design and synthesis of novel quinoline-aminopiperidine hybrid analogues as Mycobacterium tuberculosis DNA gyraseB inhibitors” (Bioorg Med Chem, 2015):
≈ marks a conversion by molar mass, not a printed value. Calls of active or inactive are those of the source. No cut-off for these calls is given here.

What was measured:
[1] = tested on: Mycobacterium tuberculosis; test: Antimycobacterial activity against Mycobacterium tuberculosis H37Rv ATCC 27294 incubated for 7 days by microplate alamar blue assay method; assay type: functional; settings: H37Rv ATCC 27294, 168 h
Danio rerio [2] = species: Danio rerio; test: Cardiotoxic inhibition of ERG channel in Zebrafish assessed as change in heart rate of ventricles at 1 uM to 30 uM after 4 hrs; assay type: organism-based; settings: in vivo
DNA gyrase subunit B = DNA gyrase subunit B (Mycobacterium smegmatis, UniProt P0C559); test: Inhibition of Mycobacterium smegmatis GyrB ATPase activity expressed in Escherichia coli BL21 (DE3) pLysS cells after 100 mins by inorganic phosphate release detection based malachite green reagent assay; set-up: species or system Mycolicibacterium smegmatis
Danio rerio [3] = species: Danio rerio; test: Cardiotoxic inhibition of ERG channel in Zebrafish assessed as change in atrio ventricular beats ratio at 1 uM to 30 uM after 4 hrs; assay type: organism-based, Cardiac ventricle; settings: in vivo
[4] = target: DNA gyrase subunit A/DNA gyrase subunit B (Mycobacterium tuberculosis (strain ATCC 25618 / H37Rv), UniProt P9WG45+P9WG47); test: Inhibition of Mycobacterium tuberculosis GyrA/GyrB using relaxed pBR322 substrate incubated for 30 mins by ethidium bromide staining and electrophoresis based DNA supercoiling assay
[5] = target: DNA gyrase subunit B (Mycobacterium smegmatis) (UniProt P0C559); test: Binding affinity to Mycobacterium smegmatis GyrB assessed as increase in protein-compound complex stability by measuring right side positive shift of melting temperature by SYPRO-orange dye based differential scanning fluorimetry; settings: Mycolicibacterium smegmatis
[6] = target: DNA gyrase subunit B (Staphylococcus aureus) (UniProt P0A0K8); test: Inhibition of Staphylococcus aureus GyrB at 100 uM
[7] = Cytotoxicity against mouse RAW264.7 cells assessed as inhibition of cell growth at 50 uM after 48 hrs by MTT assay; assay type: cell-based; settings: read-out: GI
[8] = target: DNA gyrase subunit B (Escherichia coli) (UniProt P0AES6); test: Inhibition of Escherichia coli GyrB at 100 uM
Danio rerio [9] = species: Danio rerio; test: Cardiotoxic inhibition of ERG channel in Zebrafish assessed as change in heart rate of atria at 1 uM to 30 uM after 4 hrs; assay type: organism-based; settings: in vivo
Danio rerio [10] = species: Danio rerio; test: Cardiotoxic inhibition of ERG channel in Zebrafish assessed as change in atrio ventricular beats ratio at 20 uM after 4 hrs; assay type: organism-based, Cardiac ventricle; settings: in vivo
Danio rerio [11] = species: Danio rerio; test: Cardiotoxic inhibition of ERG channel in Zebrafish assessed as change in heart rate of ventricles at 20 uM after 4 hrs; assay type: organism-based; settings: in vivo
Danio rerio [12] = species: Danio rerio; test: Cardiotoxic inhibition of ERG channel in Zebrafish assessed as change in heart rate of atria at 20 uM after 4 hrs; assay type: organism-based; settings: in vivo
Danio rerio [13] = species: Danio rerio; test: Cardiotoxic inhibition of ERG channel in Zebrafish assessed as change in heart rate of ventricles at 30 uM after 4 hrs; assay type: organism-based; settings: in vivo
Danio rerio [14] = species: Danio rerio; test: Cardiotoxic inhibition of ERG channel in Zebrafish assessed as change in heart rate of atria at 1 uM to 10 uM after 4 hrs; assay type: organism-based; settings: in vivo
Danio rerio [15] = species: Danio rerio; test: Cardiotoxic inhibition of ERG channel in Zebrafish assessed as change in heart rate of ventricles at 1 uM to 10 uM after 4 hrs; assay type: organism-based; settings: in vivo
Danio rerio [16] = species: Danio rerio; test: Cardiotoxic inhibition of ERG channel in Zebrafish assessed as change in atrio ventricular beats ratio at 1 to 10 uM after 4 hrs; assay type: organism-based, Cardiac ventricle; settings: in vivo
Danio rerio [17] = species: Danio rerio; test: Cardiotoxic inhibition of ERG channel in Zebrafish assessed as change in heart rate of atria at 30 uM after 4 hrs; assay type: organism-based; settings: in vivo
Danio rerio [18] = species: Danio rerio; test: Cardiotoxic inhibition of ERG channel in Zebrafish assessed as change in atrio ventricular beats ratio at 30 uM after 4 hrs; assay type: organism-based, Cardiac ventricle; settings: in vivo

Sequence of DNA gyrase subunit A/DNA gyrase subunit B (P9WG45 whole entry): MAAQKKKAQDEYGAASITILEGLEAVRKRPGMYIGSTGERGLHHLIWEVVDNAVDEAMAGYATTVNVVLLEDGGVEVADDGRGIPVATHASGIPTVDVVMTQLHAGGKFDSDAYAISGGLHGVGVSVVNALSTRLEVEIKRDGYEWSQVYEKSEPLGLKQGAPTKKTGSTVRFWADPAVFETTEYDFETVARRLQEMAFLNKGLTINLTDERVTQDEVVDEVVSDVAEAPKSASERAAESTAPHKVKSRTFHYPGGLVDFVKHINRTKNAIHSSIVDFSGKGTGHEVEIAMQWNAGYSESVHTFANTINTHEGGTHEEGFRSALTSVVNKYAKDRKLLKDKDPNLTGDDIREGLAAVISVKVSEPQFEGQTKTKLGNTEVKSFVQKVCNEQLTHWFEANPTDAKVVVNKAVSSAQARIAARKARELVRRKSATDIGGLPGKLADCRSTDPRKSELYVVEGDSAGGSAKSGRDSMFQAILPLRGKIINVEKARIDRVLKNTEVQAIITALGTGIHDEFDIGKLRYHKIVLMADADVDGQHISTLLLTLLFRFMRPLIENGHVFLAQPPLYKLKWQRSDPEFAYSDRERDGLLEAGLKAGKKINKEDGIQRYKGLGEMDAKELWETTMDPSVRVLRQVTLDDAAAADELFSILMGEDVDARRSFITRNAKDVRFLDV
Sequence of DNA gyrase subunit A/DNA gyrase subunit B (P9WG47 whole entry): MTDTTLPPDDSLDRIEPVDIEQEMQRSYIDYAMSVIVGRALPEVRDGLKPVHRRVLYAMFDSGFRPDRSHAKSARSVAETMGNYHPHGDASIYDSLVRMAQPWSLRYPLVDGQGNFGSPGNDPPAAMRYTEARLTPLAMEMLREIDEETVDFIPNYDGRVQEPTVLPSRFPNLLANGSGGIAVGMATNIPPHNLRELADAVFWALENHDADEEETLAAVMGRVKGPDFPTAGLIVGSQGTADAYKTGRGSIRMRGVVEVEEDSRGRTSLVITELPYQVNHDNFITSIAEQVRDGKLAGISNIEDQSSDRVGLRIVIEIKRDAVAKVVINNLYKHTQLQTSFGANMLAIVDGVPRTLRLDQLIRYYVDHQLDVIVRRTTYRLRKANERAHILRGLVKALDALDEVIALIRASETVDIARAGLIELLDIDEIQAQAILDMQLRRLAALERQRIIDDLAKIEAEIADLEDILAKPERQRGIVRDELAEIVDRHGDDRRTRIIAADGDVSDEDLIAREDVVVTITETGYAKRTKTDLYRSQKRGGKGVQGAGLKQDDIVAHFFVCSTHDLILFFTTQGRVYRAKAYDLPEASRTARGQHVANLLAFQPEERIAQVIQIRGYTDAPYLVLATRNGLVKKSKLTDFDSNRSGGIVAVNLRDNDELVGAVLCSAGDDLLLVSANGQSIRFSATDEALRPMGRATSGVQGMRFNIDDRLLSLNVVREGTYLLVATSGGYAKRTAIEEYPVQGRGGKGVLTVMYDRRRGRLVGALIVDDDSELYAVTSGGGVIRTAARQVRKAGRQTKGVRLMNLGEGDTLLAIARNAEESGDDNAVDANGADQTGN
Sequence of DNA gyrase subunit B (P0C559 whole entry): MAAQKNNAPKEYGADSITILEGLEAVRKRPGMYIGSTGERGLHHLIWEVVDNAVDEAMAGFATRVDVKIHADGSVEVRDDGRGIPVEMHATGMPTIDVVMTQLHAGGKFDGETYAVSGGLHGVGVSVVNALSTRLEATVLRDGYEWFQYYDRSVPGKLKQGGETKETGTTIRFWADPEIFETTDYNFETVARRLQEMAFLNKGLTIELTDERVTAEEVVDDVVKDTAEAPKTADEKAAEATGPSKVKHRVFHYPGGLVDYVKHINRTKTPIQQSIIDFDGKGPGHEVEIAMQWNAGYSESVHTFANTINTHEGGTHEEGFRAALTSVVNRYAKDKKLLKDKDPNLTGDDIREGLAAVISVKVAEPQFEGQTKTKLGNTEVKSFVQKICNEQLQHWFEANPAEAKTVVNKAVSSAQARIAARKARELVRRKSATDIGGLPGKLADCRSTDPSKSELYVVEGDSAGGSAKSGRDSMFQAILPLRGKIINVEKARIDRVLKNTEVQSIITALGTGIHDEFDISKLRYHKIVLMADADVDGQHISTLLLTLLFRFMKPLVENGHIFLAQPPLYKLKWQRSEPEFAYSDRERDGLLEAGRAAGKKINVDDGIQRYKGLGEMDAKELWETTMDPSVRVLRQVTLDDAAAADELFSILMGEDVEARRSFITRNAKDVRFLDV
Sequence of DNA gyrase subunit B (Mycobacterium smegmatis) (P0C559 2-675 limits assumed): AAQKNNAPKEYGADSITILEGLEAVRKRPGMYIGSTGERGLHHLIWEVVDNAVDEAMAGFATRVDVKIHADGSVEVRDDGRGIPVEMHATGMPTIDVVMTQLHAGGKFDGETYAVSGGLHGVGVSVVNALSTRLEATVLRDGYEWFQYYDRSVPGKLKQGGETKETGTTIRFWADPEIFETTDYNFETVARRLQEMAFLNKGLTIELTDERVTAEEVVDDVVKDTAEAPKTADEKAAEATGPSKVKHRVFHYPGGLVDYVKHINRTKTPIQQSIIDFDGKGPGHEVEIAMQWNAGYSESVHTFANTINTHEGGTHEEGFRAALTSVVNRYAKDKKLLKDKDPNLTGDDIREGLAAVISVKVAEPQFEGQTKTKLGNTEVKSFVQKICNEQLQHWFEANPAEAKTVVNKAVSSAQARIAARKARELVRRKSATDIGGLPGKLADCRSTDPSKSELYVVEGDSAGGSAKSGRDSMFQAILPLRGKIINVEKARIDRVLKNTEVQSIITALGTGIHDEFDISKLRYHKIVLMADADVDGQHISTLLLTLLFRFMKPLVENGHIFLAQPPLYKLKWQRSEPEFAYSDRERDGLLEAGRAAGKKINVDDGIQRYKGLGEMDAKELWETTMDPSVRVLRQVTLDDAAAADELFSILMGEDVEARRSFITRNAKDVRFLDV
Sequence of DNA gyrase subunit B (Staphylococcus aureus) (P0A0K8 2-644 limits assumed): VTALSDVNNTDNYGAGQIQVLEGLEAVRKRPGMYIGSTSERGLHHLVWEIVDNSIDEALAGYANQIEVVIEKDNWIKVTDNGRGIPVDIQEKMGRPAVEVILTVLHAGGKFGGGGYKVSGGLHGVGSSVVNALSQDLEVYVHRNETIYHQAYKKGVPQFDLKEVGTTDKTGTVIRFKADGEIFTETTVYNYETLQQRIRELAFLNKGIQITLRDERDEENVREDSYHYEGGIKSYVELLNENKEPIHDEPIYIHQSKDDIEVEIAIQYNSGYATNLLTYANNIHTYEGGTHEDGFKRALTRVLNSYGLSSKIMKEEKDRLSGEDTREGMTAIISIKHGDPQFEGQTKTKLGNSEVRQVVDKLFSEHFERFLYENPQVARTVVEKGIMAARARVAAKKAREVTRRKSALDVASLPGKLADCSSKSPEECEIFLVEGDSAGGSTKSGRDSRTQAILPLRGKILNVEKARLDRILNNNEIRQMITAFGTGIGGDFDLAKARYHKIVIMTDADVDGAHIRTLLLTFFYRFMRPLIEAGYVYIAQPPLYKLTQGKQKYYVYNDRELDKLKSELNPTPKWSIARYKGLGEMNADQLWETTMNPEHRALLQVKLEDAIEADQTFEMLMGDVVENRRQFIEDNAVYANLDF

In the case of COc1ccc2nc(C)cc(N3CCC(NC(=S)Nc4ccc(Cl)cc4)CC3)c2c1, the MIC [1] is reported as 3.47 µM (≈ 1.53 µg/mL), the Activity (Danio rerio [2]) is reported as “Non-toxic” and the IC50 (DNA gyrase subunit B) is reported as 0.95 µM. The Activity (Danio rerio [3]) was “Non-toxic”, the IC50 [4] was 0.62 µM and the ΔTm [5] was 3.1 °C. The inhibition [6] was “inactive”, the inhibition at 48 h, 50 µM [7] was 29.7% and the inhibition [8] was “inactive”. For the same compound, the Activity (Danio rerio [9]) was “Non-toxic”.

For CC(C)(C)c1ccc(C(O)CCCN2CCC(C(O)(c3ccccc3)c3ccccc3)CC2)cc1 (stereo not drawn) [TERFENADINE], the Activity (Danio rerio [10]) was “Toxic”, the Activity (Danio rerio [11]) was “Toxic” and the Activity (Danio rerio [12]) was “Toxic”.

With COc1ccc2nc(C)cc(N3CCC(NC(=S)Nc4ccc(C)cc4)CC3)c2c1 the MIC [1] was 7.28 µM (≈ 3.06 µg/mL), the IC50 (DNA gyrase subunit B) was 11.1 µM and the Activity (Danio rerio [13]) was “Toxic”. The IC50 [4] was 7.94 µM, the Activity (Danio rerio [14]) was “Non-toxic” and the Activity (Danio rerio [15]) was “Non-toxic”. The Activity (Danio rerio [16]) was “Non-toxic”, the Activity (Danio rerio [17]) was “Toxic” and the inhibition at 48 h, 50 µM [7] was 44.9%. For the same compound, the Activity (Danio rerio [18]) was “Toxic”.
